Values after ≈ are worked out from the molar mass of the structure shown. Structures can show the parent of a compound that is named as a salt. Where two headings read alike, the source gives them in different places.
Key:
Assay type in all cases: cell-based
[1] = system: Escherichia coli strain 25922; assay: Determination of MIC against bacteria (Table 1), E. coli 25922; conditions: read-out: minimum inhibitory concentration (MIC), E. coli 25922
Method: (§1) Antibiotic indicator strains Escherichia coli strain 25922, Enterococcus faecalis 29212, Pseudomonas aeruginosa 27853, and Staphylococcus aureus 29213 are obtained from the American Type Tissue Culture Collection (ATCC) in Rockville, Md. The cystic fibrosis isolate, Pseudomonas aeruginosa 39324, is also obtained from ATCC. Bacteria are routinely cultivated in cation-supplemented Mueller-Hinton broth (CAMHB) or agar at 37° C.
(§2) The minimum inhibitory concentration (MIC) of glycosylated and non-glycosylated steroidal polyamines for antibiotic indicator strains is determined by dissolving the test compounds in deionized water to a final concentration of 1 mg per mL. […] These solutions are sterilized by filtration through 0.22 micron syringe filters.
(§3) Stock solutions of individual compounds are serially diluted (two-fold) in sterile CAMHB in 96-well tissue culture dishes (Falcon) and inoculated with antibiotic indicator strains that are prepared as described below.
(§4) Antibiotic indicator strains are grown in 5 mL of CAMHB for 3-4 h at 37° C. with shaking (200 rpm) on a New Brunswick rotary shaker. Bacteria are adjusted to a turbidity that matched a 0.5 McFarland standard (ca. 10^8 CFU per mL) in sterile 0.85% saline. These bacterial suspensions are diluted 1:20 in sterile 0.85% saline and 10 μL (ca. […]) of each suspension is used to inoculate individual wells of a 96 well plate that contained different concentrations of the test compounds. Following inoculation, the plates are sealed with plastic tape, incubated for 24 h at 37° C. and visually inspected for bacterial growth. CAMHB inoculated with each of the antibiotic test strains and uninoculated CAMBH plus each of the test compounds served as positive and negative controls.

[2] = system: Pseudomonas aeruginosa 27853; assay: Determination of MIC against bacteria (Table 1), P. aeruginosa 27853; conditions: read-out: minimum inhibitory concentration (MIC), P. aeruginosa 27853
Method: as §1, §2, §3, §4

[3] = system: Enterococcus faecalis 29212; assay: Determination of MIC against bacteria (Table 1), E. faecalis 29212; conditions: read-out: minimum inhibitory concentration (MIC), E. faecalis 29212
Method: as §1, §2, §3, §4

[4] = system: Staphylococcus aureus 29213; assay: Determination of MIC against bacteria (Table 1), S. aureus 29213; conditions: read-out: minimum inhibitory concentration (MIC), S. aureus 29213
Method: as §1, §2, §3, §4

[5] = system: Pseudomonas aeruginosa 39324; assay: Determination of MIC against bacteria (Table 1), P. aeruginosa 39324 (cystic fibrosis isolate); conditions: read-out: minimum inhibitory concentration (MIC), P. aeruginosa 39324
Method: as §1, §2, §3, §4

[6] = Pseudomonas aeruginosa, 27853, 24 h
[7] = Enterococcus faecalis, 29212, 24 h
[8] = Staphylococcus aureus, 29213, 24 h
[9] = Pseudomonas aeruginosa, 39324, 24 h
[10] = Escherichia coli, 25922, CAMHB, 24 h at 37° C., tested from 1.56 to 200 μg per mL
[11] = Pseudomonas aeruginosa, 27853, CAMHB, 24 h at 37° C., tested from 1.56 to 200 μg per mL
[12] = Enterococcus faecalis, 29212, CAMHB, 24 h at 37° C., tested from 1.56 to 200 μg per mL
[13] = Staphylococcus aureus, 29213, CAMHB, 24 h at 37° C., tested from 1.56 to 200 μg per mL
[14] = Pseudomonas aeruginosa, 39324, CAMHB, 24 h at 37° C., tested from 1.56 to 200 μg per mL

SMILES | MIC ([1]; Escherichia coli, 25922, 24 h) | MIC [2, 6] | MIC [3, 7] | MIC [4, 8] | MIC [5, 9] | MIC [1, 10] | MIC [2, 11] | MIC [3, 12] | MIC [4, 13] | MIC [5, 14]
C[C@H](CCC(=O)NCCCNCCCCNCCCN)[C@H]1CC[C@H]2[C@@H]3CC[C@@H]4C[C@H](O)CC[C@]4(C)[C@H]3C[C@H](O)[C@]12C [Compound A, 3α,12α-dihydroxy-7-deoxy-5β-cholan-24-oic acid, N-(4,9-diaza-12-aminododecyl)amide] | 12.5 µg/mL (≈ 21.7 µM) | 3.12 µg/mL (≈ 5.41 µM) | 12.5 µg/mL (≈ 21.7 µM) | 6.25 µg/mL (≈ 10.8 µM) | 25 µg/mL (≈ 43.3 µM) |  |  |  |  | 
C[C@H](CCC(=O)NCCCNCCCCNCCCN)[C@H]1CC[C@H]2[C@@H]3[C@H](O)C[C@@H]4C[C@H](O)CC[C@]4(C)[C@H]3C[C@H](O)[C@]12C [Compound B, 3α,7α,12α-trihydroxy-5β-cholan-24-oic acid, N-(4,9-diaza-12-aminododecyl)amide] | 200 µg/mL (≈ 337 µM) | 100 to 200 µg/mL (≈ 169 to 337 µM) | 200 µg/mL (≈ 337 µM) | 50 µg/mL (≈ 84.3 µM) | 100 µg/mL (≈ 169 µM) |  |  |  |  | 
C[C@H](CCC(=O)NCCCNCCCCNCCCN)[C@H]1CC[C@H]2[C@@H]3[C@H](O[C@H]4O[C@H](CO)[C@@H](O)[C@H](O)[C@H]4O)C[C@@H]4C[C@H](O)CC[C@]4(C)[C@H]3C[C@H](O[C@H]3O[C@H](CO)[C@@H](O)[C@H](O)[C@H]3O)[C@]12C [Compound C, 3α-hydroxy-7α,12α-di(1'α-glucosyl)-5β-cholan-24-oic acid, N-(4,9-diaza-12-aminododecyl)amide] | 200 µg/mL (≈ 218 µM) | 200 µg/mL (≈ 218 µM) | > 200 µg/mL | 200 µg/mL (≈ 218 µM) |  |  |  |  |  | 
C[C@H](CCC(=O)NCCCNCCCCNCCCN)[C@H]1CC[C@H]2[C@@H]3CC[C@@H]4C[C@H](O)CC[C@]4(C)[C@H]3C[C@H](O[C@H]3O[C@H](CO)[C@@H](O)[C@H](O)[C@H]3O)[C@]12C [Compound D, 3α-hydroxy-7-deoxy-12α-(1'α-glucosyl)-5β-cholan-24-oic acid, N-(4,9-diaza-12-aminododecyl)amide] | 100 µg/mL (≈ 135 µM) | 100 to 200 µg/mL (≈ 135 to 271 µM) | 200 µg/mL (≈ 271 µM) | 50 to 100 µg/mL (≈ 67.7 to 135 µM) |  |  |  |  |  | 
C[C@H](CCC(=O)NCCCNCCCCNCCCN)[C@H]1CC[C@H]2[C@@H]3[C@H](O[C@H]4O[C@H](CO)[C@@H](O)[C@H](O)[C@H]4O)C[C@@H]4C[C@H](O)CC[C@]4(C)[C@H]3CC[C@]12C [Compound E, 3α-hydroxy-12-deoxy-7α-(1'α-glucosyl)-5β-cholan-24-oic acid, N-(4,9-diaza-12-aminododecyl)amide] | 12.5 µg/mL (≈ 16.9 µM) | 12.5 µg/mL (≈ 16.9 µM) | 25 µg/mL (≈ 33.8 µM) | 25 µg/mL (≈ 33.8 µM) | 12.5 µg/mL (≈ 16.9 µM) |  |  |  |  | 
C[C@H](CCC(=O)NCCNCCNCCNCCN)[C@H]1CC[C@H]2[C@@H]3CC[C@@H]4C[C@H](O)CC[C@]4(C)[C@H]3C[C@H](O)[C@]12C [Compound F, 3α,12α-dihydroxy-7-deoxy-5β-cholan-24-oic acid, N-(3,6,9-triaza-11-aminoundecyl)amide] |  |  |  |  |  | 100 µg/mL (≈ 177 µM) | 100 µg/mL (≈ 177 µM) | 100 µg/mL (≈ 177 µM) | 25 µg/mL (≈ 44.3 µM) | 100 µg/mL (≈ 177 µM)
C[C@H](CCC(=O)NCCNCCNCCNCCNCCN)[C@H]1CC[C@H]2[C@@H]3CC[C@@H]4C[C@H](O)CC[C@]4(C)[C@H]3C[C@H](O)[C@]12C [Compound G, 3α,12α-dihydroxy-7-deoxy-5β-cholan-24-oic acid, N-(3,6,9,12-tetraaza-14-aminotetradecyl)amide] |  |  |  |  |  | 100 µg/mL (≈ 165 µM) | 50 µg/mL (≈ 82.4 µM) | 100 µg/mL (≈ 165 µM) | 25 µg/mL (≈ 41.2 µM) | 50 to 100 µg/mL (≈ 82.4 to 165 µM)
C[C@H](CCC(=O)NCCNCCNCCNCCN)[C@H]1CC[C@H]2[C@@H]3[C@H](O)C[C@@H]4C[C@H](O)CC[C@]4(C)[C@H]3CC[C@]12C [Compound I, 3α,7α-dihydroxy-12-deoxy-5β-cholan-24-oic acid, N-(3,6,9-triaza-11-aminoundecyl)amide] |  |  |  |  |  | 25 µg/mL (≈ 44.3 µM) | 50 µg/mL (≈ 88.7 µM) | 25 µg/mL (≈ 44.3 µM) | 12.5 µg/mL (≈ 22.2 µM) | 50 µg/mL (≈ 88.7 µM)
C[C@H](CCC(=O)NCCNCCNCCNCCN)[C@H]1CC[C@H]2[C@@H]3[C@H](O)C[C@@H]4C[C@H](O)CC[C@]4(C)[C@H]3C[C@H](O)[C@]12C [Compound J, 3α,7α,12α-trihydroxy-5β-cholan-24-oic acid, N-(3,6,9-triaza-11-aminoundecyl)amide] |  |  |  |  |  | 75 µg/mL (≈ 129 µM) | 75 µg/mL (≈ 129 µM) | 18.7 µg/mL (≈ 32.2 µM) | 37.5 µg/mL (≈ 64.7 µM) | 37.5 µg/mL (≈ 64.7 µM)
C[C@H](CCC(=O)NCCNCCNCCNCCNCCN)[C@H]1CC[C@H]2[C@@H]3[C@H](O)C[C@@H]4C[C@H](O)CC[C@]4(C)[C@H]3C[C@H](O)[C@]12C [Compound K, 3α,7α,12α-trihydroxy-12-deoxy-5β-cholan-24-oic acid, N-(3,6,9,12-tetraaza-14-aminotetradecyl)amide] |  |  |  |  |  | 75 µg/mL (≈ 120 µM) | 75 µg/mL (≈ 120 µM) | 15.7 µg/mL (≈ 25.2 µM) | 37.5 µg/mL (≈ 60.2 µM) | 75 µg/mL (≈ 120 µM)
C[C@H](CCC(=O)NCCNCCNCCNCCNCCN)[C@H]1CC[C@H]2[C@@H]3[C@H](O[C@H]4O[C@H](CO)[C@@H](O)[C@H](O)[C@H]4O)C[C@@H]4C[C@H](O)CC[C@]4(C)[C@H]3C[C@H](O[C@H]3O[C@H](CO)[C@@H](O)[C@H](O)[C@H]3O)[C@]12C [Compound L, 3α-hydroxy-7α,12α-di(1'α-glucosyl)-5β-cholan-24-oic acid, N-(3,6,9,12-tetraaza-14-aminotetradecyl)amide] |  |  |  |  |  | > 200 µg/mL | > 200 µg/mL | > 200 µg/mL | > 200 µg/mL | > 150 µg/mL
C[C@H](CCC(=O)NCCNCCNCCNCCN)[C@H]1CC[C@H]2[C@@H]3[C@H](O[C@H]4O[C@H](CO)[C@@H](O)[C@H](O)[C@H]4O)C[C@@H]4C[C@H](O)CC[C@]4(C)[C@H]3C[C@H](O[C@H]3O[C@H](CO)[C@@H](O)[C@H](O)[C@H]3O)[C@]12C [Compound M, 3α-hydroxy-7α,12α-di(1'α-glucosyl)-5β-cholan-24-oic acid, N-(3,6,9-triaza-11-aminoundecyl)amide] |  |  |  |  |  | > 200 µg/mL | > 200 µg/mL | > 200 µg/mL | > 200 µg/mL | > 150 µg/mL
C[C@H](CCC(=O)NCCNCCNCCNCCNCCN)[C@H]1CC[C@H]2[C@@H]3CC[C@@H]4C[C@H](O)CC[C@]4(C)[C@H]3CC[C@]12C [Compound N, 3α-hydroxy-7,12-dideoxy-5β-cholan-24-oic acid (or lithocholic acid), N-(3,6,9,12-tetraaza-14-aminotetradecyl)amide] |  |  |  |  |  | > 200 µg/mL | 200 µg/mL (≈ 338 µM) | 200 µg/mL (≈ 338 µM) | 50 µg/mL (≈ 84.6 µM) | 200 µg/mL (≈ 338 µM)
C[C@H](CCC(=O)O)[C@H]1CC[C@H]2[C@@H]3[C@H](O)C[C@@H]4C[C@H](O)CC[C@]4(C)[C@H]3C[C@H](O)[C@]12C [cholic acid sodium salt, reference compound] | > 200 µg/mL | > 200 µg/mL | > 200 µg/mL | > 200 µg/mL | > 200 µg/mL |  |  |  |  | 
C[C@H](CCC(=O)O)[C@H]1CC[C@H]2[C@@H]3CC[C@@H]4C[C@H](O)CC[C@]4(C)[C@H]3C[C@H](O)[C@]12C [deoxycholic acid sodium salt, reference compound] |  | > 200 µg/mL | > 200 µg/mL | > 200 µg/mL | > 200 µg/mL | > 200 µg/mL |  |  |  | 
